# Measured values taken from ChEMBL document CHEMBL1201862, “PubChem BioAssay data set” (2004).
#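 Protocol summary: plate cells (96-well), add compound at 5 concentrations, incubate 48 h, interpolate endpoints linearly. GI50 marks 50% less growth.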 Activity calls are given as the source filed them. Cut-off read from the data, not from the text of the source: active = GI50 up to about 1.1 µM and inactive = higher.
# Assays:
# Assay in all cases: DTP human tumour cell line panel, 48 h
# [1] = test system: KM12
# [2] = test system: HCT-15
# [3] = test system: IGROV-1
# [4] = test system: PC-3
# [5] = test system: HOP-62
# [6] = test system: SN12C
# [7] = test system: MOLT-4
# [8] = test system: UACC-62
# [9] = test system: RPMI-8226
# [10] = test system: TK-10
# [11] = test system: CCRF-CEM
# [12] = test system: HCC 2998
# [13] = test system: MCF7
# [14] = test system: Malme-3M
# [15] = test system: MDA-N
# [16] = test system: CAKI-1
# [17] = test system: MDA-MB-231
# [18] = test system: T47D
# [19] = test system: SK-MEL-5
# [20] = test system: SF-295
# [21] = test system: SR
# [22] = test system: DU-145
# [23] = test system: OVCAR-8
# [24] = test system: SW-620
# [25] = test system: HT-29
# [26] = test system: A549
# [27] = test system: EKVX
# [28] = test system: COLO 205
# [29] = test system: K562
# [30] = test system: UACC-257
# [31] = test system: 786-0
# [32] = test system: SK-OV-3
# [33] = test system: NCI-H23
# [34] = test system: M14
# [35] = test system: SK-MEL-28
# [36] = test system: SF-268
# [37] = test system: RXF 393
# [38] = test system: HL-60
# [39] = test system: SNB-75
# [40] = test system: U-251
# [41] = test system: MDA-MB-435
# [42] = test system: A498
# [43] = test system: OVCAR-5
# [44] = test system: HOP-92
# [45] = test system: NCI-H460
# [46] = test system: ACHN
# [47] = test system: NCI/ADR-RES
# [48] = test system: SNB-19
# [49] = test system: UO-31
# [50] = test system: HCT-116
# [51] = test system: OVCAR-3
# [52] = test system: OVCAR-4
# [53] = test system: NCI-H522
# [54] = test system: LOX IMVI
smiles,measurement,setting,value
C1=C(c2ccccc2)O[C@H](COCc2ccccc2)C(OCc2ccccc2)[C@@H]1OCc1ccccc1 (some centres not stated),GI50,[1],> 10 µM (inactive)
same,GI50,[2],> 10 µM
same,GI50,[3],> 10 µM (inactive)
same,GI50,[4],> 10 µM (inactive)
same,GI50,[5],> 10 µM (inactive)
same,GI50,[6],> 10 µM (inactive)
same,GI50,[7],> 10 µM (inactive)
same,GI50,[8],> 10 µM (inactive)
same,GI50,[9],> 10 µM (inactive)
same,GI50,[10],> 10 µM (inactive)
same,GI50,[11],> 10 µM (inactive)
same,GI50,[12],> 10 µM (inactive)
same,GI50,[13],> 10 µM (inactive)
same,GI50,[14],> 10 µM (inactive)
same,GI50,[15],> 10 µM (inactive)
same,GI50,[16],> 10 µM (inactive)
same,GI50,[17],> 10 µM (inactive)
same,GI50,[18],> 10 µM (inactive)
same,GI50,[19],> 10 µM (inactive)
same,GI50,[20],> 10 µM (inactive)
same,GI50,[21],> 10 µM (inactive)
same,GI50,[22],> 10 µM (inactive)
same,GI50,[23],> 10 µM (inactive)
same,GI50,[24],> 10 µM (inactive)
same,GI50,[25],> 10 µM (inactive)
same,GI50,[26],> 10 µM (inactive)
same,GI50,[27],> 10 µM (inactive)
same,GI50,[28],> 10 µM (inactive)
same,GI50,[29],> 10 µM (inactive)
same,GI50,[30],> 10 µM (inactive)
same,GI50,[31],> 10 µM (inactive)
same,GI50,[32],> 10 µM (inactive)
same,GI50,[33],> 10 µM (inactive)
same,GI50,[34],> 10 µM (inactive)
same,GI50,[35],> 10 µM (inactive)
same,GI50,[36],> 10 µM (inactive)
same,GI50,[37],> 10 µM (inactive)
same,GI50,[38],> 10 µM (inactive)
same,GI50,[39],> 10 µM (inactive)
COc1ccc(-c2oc3cc(O)cc(O)c3c(=O)c2OC)cc1 [ERMANIN],GI50,[40],18 µM (inactive)
same,GI50,[2],23.4 µM
same,GI50,[41],17.8 µM (inactive)
same,GI50,[3],28.3 µM (inactive)
same,GI50,[4],31 µM (inactive)
same,GI50,[42],24.4 µM (inactive)
same,GI50,[5],26.6 µM (inactive)
same,GI50,[7],20.9 µM (inactive)
same,GI50,[8],21.5 µM (inactive)
same,GI50,[9],15 µM (inactive)
same,GI50,[10],39.9 µM (inactive)
same,GI50,[43],> 100 µM (inactive)
same,GI50,[11],22.1 µM (inactive)
same,GI50,[44],3.23 µM (inactive)
same,GI50,[12],26 µM (inactive)
same,GI50,[13],38.5 µM (inactive)
same,GI50,[14],38.8 µM (inactive)
same,GI50,[15],25.4 µM (inactive)
same,GI50,[16],24.3 µM (inactive)
same,GI50,[17],31.8 µM (inactive)
same,GI50,[45],25.4 µM (inactive)
same,GI50,[46],24.3 µM (inactive)
same,GI50,[18],31 µM (inactive)
same,GI50,[19],16.7 µM (inactive)
same,GI50,[20],26.6 µM (inactive)
same,GI50,[21],19.5 µM (inactive)
same,GI50,[47],27.2 µM (inactive)
same,GI50,[22],27.2 µM (inactive)
same,GI50,[48],32.7 µM (inactive)
same,GI50,[23],44.1 µM (inactive)
same,GI50,[24],31.2 µM (inactive)
same,GI50,[25],24.7 µM (inactive)
same,GI50,[26],34.9 µM (inactive)
same,GI50,[49],21.6 µM (inactive)
same,GI50,[27],51.2 µM (inactive)
same,GI50,[50],39.9 µM (inactive)
same,GI50,[28],20.7 µM (inactive)
same,GI50,[29],9.79 µM (inactive)
same,GI50,[30],59.8 µM (inactive)
same,GI50,[51],21 µM (inactive)
same,GI50,[32],4.66 µM (inactive)
same,GI50,[52],44.6 µM (inactive)
same,GI50,[53],2.48 µM (inactive)
same,GI50,[34],37.2 µM (inactive)
same,GI50,[35],27 µM (inactive)
same,GI50,[36],22.1 µM (inactive)
same,GI50,[54],38.2 µM (inactive)
same,GI50,[38],14.1 µM (inactive)
